Test results published in patent EP4700036A1, “GLYCOLIPID DERIVATIVE AS MINCLE LIGAND” (The University of Osaka, priority 2023, dated 2024).

Target: T1, bovine Mincle (Bos taurus, UniProt E1BHM0)
T1 construct: expressed in transfected cells
T1 sequence (E1BHM0 1-211): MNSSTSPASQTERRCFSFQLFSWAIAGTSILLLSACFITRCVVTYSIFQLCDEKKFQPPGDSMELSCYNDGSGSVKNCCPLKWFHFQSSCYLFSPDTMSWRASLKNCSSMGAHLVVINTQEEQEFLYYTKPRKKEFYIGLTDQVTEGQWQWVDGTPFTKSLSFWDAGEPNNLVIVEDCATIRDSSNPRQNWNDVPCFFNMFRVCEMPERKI
Assay: Mincle ligand activity, NFAT-GFP reporter cells expressing bovine Mincle
Type: cell-based
Conditions: 96-well plate, 0.03 to 3 nmol; Fig. 1 (right)
Method: Similarly, using NFAT-GFP reporter cells expressing bovine Mincle, prepared according to the method described in a literature (Yamasaki, S. et al, Nat Immunol 9, 1179-88(2008)), the ligand activity of HD-276 was evaluated on a 96-well plate. The doses of the test compounds (horizontal axis) were 0.03 to 3 (nmol) from the left to right.

Mincle ligand activity (reporter activity): confirmed to have Mincle ligand activity
Structure (SMILES): CCCCCCc1ccc(O[C@@H]2O[C@@H](C)[C@H](O)[C@@H](OC)[C@H]2O[C@@H]2O[C@@H](C)[C@H](O[C@@H]3O[C@H](COC)[C@@H](O)[C@H](O)[C@H]3O)[C@@H](OC)[C@H]2OC)cc1 [HD-276]
